# Test results taken from ChEMBL document CHEMBL4507310, “Data for DCP probe A-1211212” (2021).
# Columns and labels:
# [1] = target: Type-1 angiotensin II receptor (Homo sapiens) (UniProt P30556); test: AT1 (h) Eurofins-Cerep binding assay; set-up: ligand concentration 0.05 nM; conditions: filed as antagonist, Compound concentration 10.0 uM
# [2] = target: Type-2 angiotensin II receptor (Homo sapiens) (UniProt P50052); test: AT2 (h) Eurofins-Cerep binding assay; set-up: ligand concentration 0.01 nM; conditions: filed as agonist, Compound concentration 10.0 uM
# [3] = target: MAO-A (amine oxidase [flavin-containing] A) (Rattus norvegicus, UniProt P21396); test: MAO-A Eurofins-Cerep binding assay; set-up: incubation time 60 min, incubation temperature 37°C, ligand concentration 10 nM; conditions: rat cerebral cortex, probe [3H]Ro 41-1049 (10 nM), compound concentration 10 uM, read-out: % Inhibition of Control Specific Binding (Mean n=2)
# [4] = target: T1, 5-hydroxytryptamine receptor 2C (Homo sapiens) (UniProt P28335); test: 5-HT2C (h) Eurofins-Cerep binding assay; set-up: ligand concentration 1 nM; conditions: filed as antagonist, Compound concentration 10.0 uM
# T1 sequence (whole entry): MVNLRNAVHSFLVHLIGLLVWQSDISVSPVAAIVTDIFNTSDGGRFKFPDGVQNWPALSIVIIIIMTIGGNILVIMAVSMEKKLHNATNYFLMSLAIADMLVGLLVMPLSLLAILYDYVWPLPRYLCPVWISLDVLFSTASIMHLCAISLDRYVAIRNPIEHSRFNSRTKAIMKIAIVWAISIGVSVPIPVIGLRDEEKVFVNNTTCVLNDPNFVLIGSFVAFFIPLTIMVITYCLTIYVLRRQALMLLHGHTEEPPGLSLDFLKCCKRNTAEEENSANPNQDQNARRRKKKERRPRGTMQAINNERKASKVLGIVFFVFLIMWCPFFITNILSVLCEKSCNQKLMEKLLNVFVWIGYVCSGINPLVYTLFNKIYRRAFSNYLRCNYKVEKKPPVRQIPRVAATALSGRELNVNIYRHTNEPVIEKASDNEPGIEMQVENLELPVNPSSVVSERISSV
# [5] = target: 5-hydroxytryptamine receptor 7 (Homo sapiens) (UniProt P34969); test: 5-HT7 (h) Eurofins-Cerep binding assay; set-up: ligand concentration 4 nM; conditions: filed as agonist, Compound concentration 10.0 uM
# Sequence of 5-hydroxytryptamine receptor 7 (Homo sapiens) (P34969 whole entry): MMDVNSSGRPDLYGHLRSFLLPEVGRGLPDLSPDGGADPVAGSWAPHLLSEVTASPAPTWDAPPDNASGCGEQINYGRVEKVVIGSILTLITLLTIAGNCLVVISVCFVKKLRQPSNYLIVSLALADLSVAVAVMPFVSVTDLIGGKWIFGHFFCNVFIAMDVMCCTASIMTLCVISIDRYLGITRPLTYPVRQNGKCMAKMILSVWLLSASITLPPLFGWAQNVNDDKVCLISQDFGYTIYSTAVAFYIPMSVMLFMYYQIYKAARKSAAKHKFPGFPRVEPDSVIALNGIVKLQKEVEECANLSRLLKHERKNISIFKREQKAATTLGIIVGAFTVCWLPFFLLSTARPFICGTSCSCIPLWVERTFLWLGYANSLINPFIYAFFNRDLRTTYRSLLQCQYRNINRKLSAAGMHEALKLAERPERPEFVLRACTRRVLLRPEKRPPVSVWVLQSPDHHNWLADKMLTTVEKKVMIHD
# [6] = target: GABA-A receptor; anion channel (Rattus norvegicus) (UniProt O09028+P15431+P18506+P18508+P19969+P20236+P23574+P23576+P28471+P28473+P30191+P62813+P63079+P63138+Q91ZM7+Q9ES14); test: Cl- channel (GABA-gated) Eurofins-Cerep binding assay; type: protein-complex assay; set-up: ligand concentration 3 nM; conditions: filed as antagonist, Compound concentration 10.0 uM
# [7] = tested on: Tyrosine-protein kinase ABL1 (Homo sapiens), P00519 [F317I]; conditions: Compound concentration 1000.0 nM
# [8] = tested on: Tyrosine-protein kinase ABL1 (Homo sapiens), P00519 [F317L]; conditions: Compound concentration 1000.0 nM
# [9] = target: NUAK family SNF1-like kinase 1 (Homo sapiens) (UniProt O60285); conditions: Compound concentration 1000.0 nM
# [10] = target: Bone morphogenetic protein receptor type-1A (Homo sapiens) (UniProt P36894); conditions: Compound concentration 1000.0 nM
# [11] = target: Calcium/calmodulin-dependent protein kinase type 1D (Homo sapiens) (UniProt Q8IU85); conditions: Compound concentration 1000.0 nM
# Sequence of Calcium/calmodulin-dependent protein kinase type 1D (Homo sapiens) (Q8IU85 whole entry, looked up): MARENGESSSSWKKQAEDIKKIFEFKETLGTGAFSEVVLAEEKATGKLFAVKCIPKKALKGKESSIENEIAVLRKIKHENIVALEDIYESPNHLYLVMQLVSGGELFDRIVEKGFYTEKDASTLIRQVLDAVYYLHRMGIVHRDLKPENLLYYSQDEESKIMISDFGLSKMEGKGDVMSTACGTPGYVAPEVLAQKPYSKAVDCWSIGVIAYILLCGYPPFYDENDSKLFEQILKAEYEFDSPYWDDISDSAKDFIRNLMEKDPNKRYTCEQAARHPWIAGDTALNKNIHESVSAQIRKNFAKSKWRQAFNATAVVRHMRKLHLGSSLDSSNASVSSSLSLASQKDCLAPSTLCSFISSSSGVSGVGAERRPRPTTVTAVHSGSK
# [12] = target: Peripheral plasma membrane protein CASK (Homo sapiens) (UniProt O14936); conditions: Compound concentration 1000.0 nM
# [13] = target: Macrophage colony-stimulating factor 1 receptor (Homo sapiens) (UniProt P07333); conditions: Compound concentration 1000.0 nM
# Sequence of Macrophage colony-stimulating factor 1 receptor (Homo sapiens) (P07333 whole entry): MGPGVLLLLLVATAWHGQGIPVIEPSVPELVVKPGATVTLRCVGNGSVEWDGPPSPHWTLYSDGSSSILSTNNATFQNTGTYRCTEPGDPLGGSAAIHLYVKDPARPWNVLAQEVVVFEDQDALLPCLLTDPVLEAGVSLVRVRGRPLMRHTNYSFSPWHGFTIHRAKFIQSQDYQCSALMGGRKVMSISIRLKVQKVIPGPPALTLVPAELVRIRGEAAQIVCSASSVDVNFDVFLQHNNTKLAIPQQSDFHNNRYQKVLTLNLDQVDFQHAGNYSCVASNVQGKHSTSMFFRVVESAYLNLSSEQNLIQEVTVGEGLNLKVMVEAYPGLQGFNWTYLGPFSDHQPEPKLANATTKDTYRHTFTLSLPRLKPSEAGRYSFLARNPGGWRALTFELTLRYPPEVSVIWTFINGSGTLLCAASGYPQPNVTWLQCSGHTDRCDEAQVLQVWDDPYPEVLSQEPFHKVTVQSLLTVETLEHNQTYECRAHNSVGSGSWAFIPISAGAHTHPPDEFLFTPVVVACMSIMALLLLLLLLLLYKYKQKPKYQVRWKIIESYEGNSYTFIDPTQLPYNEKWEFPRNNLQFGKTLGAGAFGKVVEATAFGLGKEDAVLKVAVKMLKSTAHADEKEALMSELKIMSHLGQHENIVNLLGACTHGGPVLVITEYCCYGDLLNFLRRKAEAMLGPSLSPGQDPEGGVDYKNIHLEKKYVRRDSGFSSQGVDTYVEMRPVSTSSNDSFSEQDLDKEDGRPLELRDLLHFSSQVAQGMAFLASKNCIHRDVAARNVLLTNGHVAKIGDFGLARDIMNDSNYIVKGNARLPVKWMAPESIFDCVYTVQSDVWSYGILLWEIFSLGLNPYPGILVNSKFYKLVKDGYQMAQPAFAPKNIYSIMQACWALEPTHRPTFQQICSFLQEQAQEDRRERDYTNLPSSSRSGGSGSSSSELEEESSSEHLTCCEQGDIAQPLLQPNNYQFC
# [14] = target: Serine/threonine-protein kinase 17B (Homo sapiens) (UniProt O94768); conditions: Compound concentration 1000.0 nM
# [15] = target: Ephrin type-A receptor 5 (Homo sapiens) (UniProt P54756); conditions: Compound concentration 1000.0 nM
# [16] = target: Receptor tyrosine-protein kinase erbB-3 (Homo sapiens) (UniProt P21860); conditions: Compound concentration 1000.0 nM
# [17] = target: Fibroblast growth factor receptor 2 (Homo sapiens) (UniProt P21802); conditions: Compound concentration 1000.0 nM
# [18] = target: Receptor-type tyrosine-protein kinase FLT3 (Homo sapiens) (UniProt P36888); conditions: Compound concentration 1000.0 nM
# Sequence of Receptor-type tyrosine-protein kinase FLT3 (Homo sapiens) (P36888 whole entry): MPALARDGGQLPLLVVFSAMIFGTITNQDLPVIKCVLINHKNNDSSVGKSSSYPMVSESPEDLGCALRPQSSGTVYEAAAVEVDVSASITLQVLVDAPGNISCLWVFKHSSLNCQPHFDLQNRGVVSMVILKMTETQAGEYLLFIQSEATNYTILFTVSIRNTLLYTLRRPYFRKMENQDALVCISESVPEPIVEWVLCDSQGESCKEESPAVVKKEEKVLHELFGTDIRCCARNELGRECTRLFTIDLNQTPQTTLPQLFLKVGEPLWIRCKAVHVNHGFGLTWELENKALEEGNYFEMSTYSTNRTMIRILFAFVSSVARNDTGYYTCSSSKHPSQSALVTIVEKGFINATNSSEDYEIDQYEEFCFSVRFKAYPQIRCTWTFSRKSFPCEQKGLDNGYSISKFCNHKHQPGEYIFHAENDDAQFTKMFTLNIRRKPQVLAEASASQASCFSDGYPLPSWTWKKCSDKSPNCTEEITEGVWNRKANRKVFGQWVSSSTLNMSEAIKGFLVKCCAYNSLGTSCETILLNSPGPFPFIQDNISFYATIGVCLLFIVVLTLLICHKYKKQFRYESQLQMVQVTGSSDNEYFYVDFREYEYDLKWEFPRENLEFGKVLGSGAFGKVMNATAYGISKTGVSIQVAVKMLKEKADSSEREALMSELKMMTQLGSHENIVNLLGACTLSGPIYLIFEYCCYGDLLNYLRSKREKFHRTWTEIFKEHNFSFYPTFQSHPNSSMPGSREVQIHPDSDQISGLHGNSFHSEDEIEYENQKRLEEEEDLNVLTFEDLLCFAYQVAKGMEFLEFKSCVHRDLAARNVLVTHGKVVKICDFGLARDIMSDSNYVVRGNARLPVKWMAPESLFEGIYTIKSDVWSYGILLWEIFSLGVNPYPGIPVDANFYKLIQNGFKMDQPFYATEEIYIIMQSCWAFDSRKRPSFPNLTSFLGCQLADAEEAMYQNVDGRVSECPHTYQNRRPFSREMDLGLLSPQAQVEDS
# [19] = target: Rhodopsin kinase GRK7 (Homo sapiens) (UniProt Q8WTQ7); conditions: Compound concentration 1000.0 nM
# [20] = target: Tyrosine-protein kinase ITK/TSK (Homo sapiens) (UniProt Q08881); conditions: Compound concentration 1000.0 nM
# [21] = target: Mitogen-activated protein kinase kinase kinase kinase 3 (Homo sapiens) (UniProt Q8IVH8); conditions: Compound concentration 1000.0 nM
# [22] = target: Myosin light chain kinase family member 4 (Homo sapiens) (UniProt Q86YV6); conditions: Compound concentration 1000.0 nM
# Sequence of Myosin light chain kinase family member 4 (Homo sapiens) (Q86YV6 whole entry): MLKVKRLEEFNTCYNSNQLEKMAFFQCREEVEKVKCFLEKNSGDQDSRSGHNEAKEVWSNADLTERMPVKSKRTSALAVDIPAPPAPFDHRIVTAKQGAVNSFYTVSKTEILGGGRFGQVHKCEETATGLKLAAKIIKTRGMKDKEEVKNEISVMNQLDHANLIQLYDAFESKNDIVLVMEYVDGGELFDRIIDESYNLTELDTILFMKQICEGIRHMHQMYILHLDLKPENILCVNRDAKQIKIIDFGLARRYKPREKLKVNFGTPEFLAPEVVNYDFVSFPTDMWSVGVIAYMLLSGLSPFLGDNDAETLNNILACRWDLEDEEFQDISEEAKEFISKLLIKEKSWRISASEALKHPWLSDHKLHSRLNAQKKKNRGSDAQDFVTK
# [23] = target: Myosin-IIIb (Homo sapiens) (UniProt Q8WXR4); conditions: Compound concentration 1000.0 nM
# Sequence of Myosin-IIIb (Homo sapiens) (Q8WXR4 whole entry): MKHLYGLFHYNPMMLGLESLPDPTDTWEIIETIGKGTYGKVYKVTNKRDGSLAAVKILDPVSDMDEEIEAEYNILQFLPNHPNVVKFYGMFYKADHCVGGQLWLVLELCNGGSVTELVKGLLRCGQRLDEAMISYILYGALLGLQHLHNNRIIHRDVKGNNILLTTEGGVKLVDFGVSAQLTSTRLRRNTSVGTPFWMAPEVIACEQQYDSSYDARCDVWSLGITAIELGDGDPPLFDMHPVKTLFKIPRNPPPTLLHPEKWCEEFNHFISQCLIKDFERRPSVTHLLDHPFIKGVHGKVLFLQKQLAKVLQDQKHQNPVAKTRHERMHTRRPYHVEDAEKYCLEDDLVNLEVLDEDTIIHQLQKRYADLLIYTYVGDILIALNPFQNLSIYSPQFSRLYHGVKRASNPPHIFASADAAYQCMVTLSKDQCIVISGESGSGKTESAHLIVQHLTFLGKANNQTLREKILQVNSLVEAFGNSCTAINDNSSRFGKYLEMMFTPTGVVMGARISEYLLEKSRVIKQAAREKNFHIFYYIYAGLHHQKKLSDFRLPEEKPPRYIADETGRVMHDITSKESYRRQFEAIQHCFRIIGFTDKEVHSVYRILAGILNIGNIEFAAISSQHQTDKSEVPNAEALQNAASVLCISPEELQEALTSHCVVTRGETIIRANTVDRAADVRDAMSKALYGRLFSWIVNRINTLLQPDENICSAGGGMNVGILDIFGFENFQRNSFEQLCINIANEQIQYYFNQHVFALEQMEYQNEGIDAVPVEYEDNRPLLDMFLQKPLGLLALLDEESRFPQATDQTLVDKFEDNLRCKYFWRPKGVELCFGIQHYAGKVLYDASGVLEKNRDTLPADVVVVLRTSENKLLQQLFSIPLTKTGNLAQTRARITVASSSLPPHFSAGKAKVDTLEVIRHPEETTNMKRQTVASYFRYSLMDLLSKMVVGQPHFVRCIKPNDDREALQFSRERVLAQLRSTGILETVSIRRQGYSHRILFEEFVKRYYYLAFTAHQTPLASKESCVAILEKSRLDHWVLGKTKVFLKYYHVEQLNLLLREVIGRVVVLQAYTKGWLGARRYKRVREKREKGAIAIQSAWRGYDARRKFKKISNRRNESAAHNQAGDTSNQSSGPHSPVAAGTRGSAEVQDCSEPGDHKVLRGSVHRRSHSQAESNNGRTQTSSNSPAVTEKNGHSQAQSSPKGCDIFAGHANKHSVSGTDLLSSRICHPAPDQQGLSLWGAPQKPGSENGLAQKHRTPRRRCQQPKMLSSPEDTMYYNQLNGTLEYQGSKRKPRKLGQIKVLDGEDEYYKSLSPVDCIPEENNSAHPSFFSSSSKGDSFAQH
# [24] = target: Cyclin-dependent kinase 15 (Homo sapiens) (UniProt Q96Q40); conditions: Compound concentration 1000.0 nM
# [25] = target: Phosphorylase b kinase regulatory subunit alpha, liver isoform (Homo sapiens) (UniProt P46019); conditions: Compound concentration 1000.0 nM
# [26] = target: Serine/threonine-protein kinase D1 (Homo sapiens) (UniProt Q15139); conditions: Compound concentration 1000.0 nM
# [27] = target: Serine/threonine-protein kinase RIO3 (Homo sapiens) (UniProt O14730); conditions: Compound concentration 1000.0 nM
# [28] = target: Rho-associated protein kinase 1 (Homo sapiens) (UniProt Q13464); conditions: Compound concentration 1000.0 nM
# [29] = target: Serine/threonine-protein kinase tousled-like 2 (Homo sapiens) (UniProt Q86UE8); conditions: Compound concentration 1000.0 nM
# [30] = target: T2, Alpha-2B adrenergic receptor (Homo sapiens) (UniProt P18089); conditions: Compound concentration 10.0 uM
# T2 sequence (whole entry): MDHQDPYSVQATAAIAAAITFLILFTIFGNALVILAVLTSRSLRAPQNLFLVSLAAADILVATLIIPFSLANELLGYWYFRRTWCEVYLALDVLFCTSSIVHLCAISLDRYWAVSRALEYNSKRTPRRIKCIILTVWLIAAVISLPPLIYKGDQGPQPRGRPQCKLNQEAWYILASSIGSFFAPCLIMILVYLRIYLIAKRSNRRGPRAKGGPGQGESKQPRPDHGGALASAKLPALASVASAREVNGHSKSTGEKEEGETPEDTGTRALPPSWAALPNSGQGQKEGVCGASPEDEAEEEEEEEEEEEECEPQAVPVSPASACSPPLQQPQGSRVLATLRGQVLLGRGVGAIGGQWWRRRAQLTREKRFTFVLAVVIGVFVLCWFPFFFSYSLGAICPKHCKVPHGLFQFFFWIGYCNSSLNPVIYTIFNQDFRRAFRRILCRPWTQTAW
# Sequence of Type-1 angiotensin II receptor (Homo sapiens) (P30556 whole entry): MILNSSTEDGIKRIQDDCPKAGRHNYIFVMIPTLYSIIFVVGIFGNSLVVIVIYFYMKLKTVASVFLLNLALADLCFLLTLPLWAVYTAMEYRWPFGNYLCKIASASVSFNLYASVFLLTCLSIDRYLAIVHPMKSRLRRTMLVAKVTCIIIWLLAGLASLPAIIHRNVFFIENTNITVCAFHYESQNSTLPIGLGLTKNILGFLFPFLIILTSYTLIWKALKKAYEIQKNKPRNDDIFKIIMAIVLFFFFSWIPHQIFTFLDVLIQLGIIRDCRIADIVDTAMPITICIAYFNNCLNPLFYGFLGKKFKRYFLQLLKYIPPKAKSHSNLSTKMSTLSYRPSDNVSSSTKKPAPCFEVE
Compound,% Inhibition of Control Specific Binding (Mean n=2) [1] [%],% Inhibition of Control Specific Binding (Mean n=2) [2] [%],"inhibition at 60 min, 10 µM [3] [%]",% Inhibition of Control Specific Binding (Mean n=2) [4] [%],% Inhibition of Control Specific Binding (Mean n=2) [5] [%],% Inhibition of Control Specific Binding (Mean n=2) [6] [%],residual activity [7] [%],residual activity [8] [%],residual activity [9] [%],residual activity [10] [%],residual activity [11] [%],residual activity [12] [%],residual activity [13] [%],residual activity [14] [%],residual activity [15] [%],residual activity [16] [%],residual activity [17] [%],residual activity [18] [%],residual activity [19] [%],residual activity [20] [%],other results
O=C(NS(=O)(=O)c1ccc(NCC2CCOCC2)c([N+](=O)[O-])c1)c1ccc(N2CCN(Cc3ccc(C(F)(F)F)cc3-c3ccc(Cl)cc3)CC2)cc1Oc1cnc2[nH]ccc2c1 [A-1210227],-3.9,5.3,8.7,3.7,10.2,-1.3,100,100,98,81,92,80,85,100,76,100,100,100,78,100,residual activity [21]: 92%; residual activity [22]: 100%; residual activity [23]: 100%; residual activity [24]: 100%; residual activity [25]: 83%; residual activity [26]: 89%; residual activity [27]: 98%; residual activity [28]: 100%; residual activity [29]: 100%; inhibition [30]: 15.6%
CO[C@H]1CC[C@H](CNc2ccc(S(=O)(=O)NC(=O)c3ccc(N4CCN(CC5=C(c6ccc(Cl)cc6)CC(C)(C)CC5)CC4)cc3Oc3cnc4[nH]ccc4c3)cc2[N+](=O)[O-])CC1 [A-1211212],19.3,4.7,-5.9,-4.1,11.4,1.3,100,83,100,57,80,100,88,91,78,100,100,100,100,87,residual activity [21]: 99%; residual activity [22]: 98%; residual activity [23]: 69%; residual activity [24]: 100%; residual activity [25]: 74%; residual activity [26]: 76%; residual activity [27]: 100%; residual activity [28]: 70%; residual activity [29]: 87%; inhibition [30]: 33%
